# Measurements as given in PubChem BioAssay (NCI).
#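 Protocol summary: plate cells (96-well), add compound at 5 concentrations, incubate 48 h, interpolate endpoints linearly. TGI: concentration producing complete growth inhibition.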
# Tests used:
# Experiment in all cases: NCI anticancer screen, dose series, 48 h
# [1] = system: 786-0 renal
# [2] = system: A498 renal
# [3] = system: A549 NSCLC
# [4] = system: ACHN renal
# [5] = system: BT-549 breast
# [6] = system: CAKI-1 renal
# [7] = system: CCRF-CEM leukemia
# [8] = system: COLO 205 colon
# [9] = system: DU-145 prostate
# [10] = system: EKVX NSCLC
# [11] = system: HCT-116 colon
# [12] = system: HL-60(TB) leukemia
# [13] = system: HOP-62 NSCLC
# [14] = system: HS 578T breast
# [15] = system: HT29 colon
# [16] = system: IGROV1 ovarian
# [17] = system: K-562 leukemia
# [18] = system: KM12 colon
# [19] = system: LOX IMVI melanoma
# [20] = system: M14 melanoma
# [21] = system: MCF7 breast
# [22] = system: MDA-MB-231 breast
# [23] = system: MDA-MB-435
# [24] = system: MDA-N
# [25] = system: MOLT-4 leukemia
# [26] = system: NCI-H226 lung
# [27] = system: NCI-H23 lung
# [28] = system: NCI-H460 lung
# [29] = system: NCI-H522 lung
# [30] = system: OVCAR-3 ovarian
# [31] = system: OVCAR-4 ovarian
# [32] = system: OVCAR-5 ovarian
# [33] = system: OVCAR-8 ovarian
# [34] = system: PC-3 prostate
# [35] = system: RPMI-8226 leukemia
# [36] = system: SF-268 CNS
# [37] = system: SF-539 CNS
# [38] = system: SK-MEL-28 melanoma
# [39] = system: SK-MEL-5 melanoma
# [40] = system: SK-OV-3 ovarian
# [41] = system: SN12C renal
# [42] = system: SNB-19 CNS
# [43] = system: SNB-75 CNS
# [44] = system: SR leukemia
# [45] = system: SW-620 colon
# [46] = system: T-47D breast
# [47] = system: TK-10 renal
# [48] = system: U251 CNS
# [49] = system: UACC-257 melanoma
# [50] = system: UACC-62 melanoma
# [51] = system: UO-31 renal
# [52] = system: HCT-15 colon
# [53] = system: HOP-92 NSCLC
# [54] = system: NCI/ADR-RES ovarian
# [55] = system: RXF 393 renal
# [56] = system: SF-295 CNS
# [57] = system: SK-MEL-2 melanoma
# [58] = system: HCC-2998 colon
# [59] = system: MALME-3M melanoma
smiles,measurement,setting,value
Cc1ncc2c(n1)CCC1=C2OS(=O)(=O)CC1N(C)C (stereo unspecified),TGI,[1],> 100 µM
same,TGI,[2],> 100 µM
same,TGI,[3],> 100 µM
same,TGI,[4],> 100 µM
same,TGI,[5],> 100 µM
same,TGI,[6],> 100 µM
same,TGI,[7],> 100 µM
same,TGI,[8],> 100 µM
same,TGI,[9],> 100 µM
same,TGI,[10],> 100 µM
same,TGI,[11],> 100 µM
same,TGI,[12],> 100 µM
same,TGI,[13],> 100 µM
same,TGI,[14],> 100 µM
same,TGI,[15],> 100 µM
same,TGI,[16],> 100 µM
same,TGI,[17],> 100 µM
same,TGI,[18],> 100 µM
same,TGI,[19],> 100 µM
same,TGI,[20],> 100 µM
same,TGI,[21],> 100 µM
same,TGI,[22],> 100 µM
same,TGI,[23],> 100 µM
same,TGI,[24],> 100 µM
same,TGI,[25],> 100 µM
same,TGI,[26],> 100 µM
same,TGI,[27],> 100 µM
same,TGI,[28],> 100 µM
same,TGI,[29],> 100 µM
same,TGI,[30],> 100 µM
same,TGI,[31],> 100 µM
same,TGI,[32],> 100 µM
same,TGI,[33],> 100 µM
same,TGI,[34],> 100 µM
same,TGI,[35],> 100 µM
same,TGI,[36],> 100 µM
same,TGI,[37],> 100 µM
same,TGI,[38],> 100 µM
same,TGI,[39],> 100 µM
same,TGI,[40],> 100 µM
same,TGI,[41],> 100 µM
same,TGI,[42],> 100 µM
same,TGI,[43],> 100 µM
same,TGI,[44],> 100 µM
same,TGI,[45],> 100 µM
same,TGI,[46],> 100 µM
same,TGI,[47],> 100 µM
same,TGI,[48],> 100 µM
same,TGI,[49],> 100 µM
same,TGI,[50],> 100 µM
same,TGI,[51],> 100 µM
O=C(O)CC(CC(=O)O)n1cccc1,TGI,[1],> 100 µM
same,TGI,[2],> 100 µM
same,TGI,[3],> 100 µM
same,TGI,[4],> 100 µM
same,TGI,[5],> 100 µM
same,TGI,[6],> 100 µM
same,TGI,[7],> 100 µM
same,TGI,[8],> 100 µM
same,TGI,[9],> 100 µM
same,TGI,[10],> 100 µM
same,TGI,[11],> 100 µM
same,TGI,[52],> 100 µM
same,TGI,[12],> 100 µM
same,TGI,[13],> 100 µM
same,TGI,[53],> 100 µM
same,TGI,[15],> 100 µM
same,TGI,[16],> 100 µM
same,TGI,[17],> 100 µM
same,TGI,[18],> 100 µM
same,TGI,[19],> 100 µM
same,TGI,[20],> 100 µM
same,TGI,[21],> 100 µM
same,TGI,[22],> 100 µM
same,TGI,[23],> 100 µM
same,TGI,[24],> 100 µM
same,TGI,[25],> 100 µM
same,TGI,[26],> 100 µM
same,TGI,[27],> 100 µM
same,TGI,[28],> 100 µM
same,TGI,[29],> 100 µM
same,TGI,[54],> 100 µM
same,TGI,[30],> 100 µM
same,TGI,[31],> 100 µM
same,TGI,[32],> 100 µM
same,TGI,[33],> 100 µM
same,TGI,[34],> 100 µM
same,TGI,[35],> 100 µM
same,TGI,[55],> 100 µM
same,TGI,[56],> 100 µM
same,TGI,[37],> 100 µM
same,TGI,[57],> 100 µM
same,TGI,[38],> 100 µM
same,TGI,[39],> 100 µM
same,TGI,[40],> 100 µM
same,TGI,[41],> 100 µM
same,TGI,[42],> 100 µM
same,TGI,[44],> 100 µM
same,TGI,[45],> 100 µM
same,TGI,[46],> 100 µM
same,TGI,[47],> 100 µM
same,TGI,[48],> 100 µM
same,TGI,[49],> 100 µM
same,TGI,[50],> 100 µM
same,TGI,[51],> 100 µM
Fc1nc(-c2c3ccccc3c3sc4ccccc4n23)nc(N2CCOCCOCCOCCOCC2)n1,TGI,[1],> 100 µM
same,TGI,[2],> 100 µM
same,TGI,[3],> 100 µM
same,TGI,[4],> 100 µM
same,TGI,[5],> 100 µM
same,TGI,[6],> 100 µM
same,TGI,[7],93.4 µM
same,TGI,[8],> 100 µM
same,TGI,[9],> 100 µM
same,TGI,[10],> 100 µM
same,TGI,[58],> 100 µM
same,TGI,[11],> 100 µM
same,TGI,[52],> 100 µM
same,TGI,[13],> 100 µM
same,TGI,[53],93 µM
same,TGI,[14],> 100 µM
same,TGI,[15],> 100 µM
same,TGI,[16],> 100 µM
same,TGI,[17],> 100 µM
same,TGI,[18],> 100 µM
same,TGI,[19],> 100 µM
same,TGI,[20],> 100 µM
same,TGI,[59],> 100 µM
same,TGI,[21],> 100 µM
same,TGI,[22],> 100 µM
same,TGI,[23],> 100 µM
same,TGI,[24],> 100 µM
same,TGI,[25],> 100 µM
same,TGI,[26],> 100 µM
same,TGI,[27],> 100 µM
same,TGI,[28],> 100 µM
same,TGI,[29],> 100 µM
same,TGI,[54],> 100 µM
same,TGI,[30],> 100 µM
same,TGI,[31],> 100 µM
same,TGI,[32],> 100 µM
same,TGI,[33],> 100 µM
same,TGI,[34],> 100 µM
same,TGI,[35],> 100 µM
same,TGI,[55],51.6 µM
same,TGI,[36],> 100 µM
same,TGI,[56],> 100 µM
same,TGI,[37],> 100 µM
same,TGI,[38],> 100 µM
same,TGI,[39],> 100 µM
same,TGI,[40],> 100 µM
same,TGI,[41],> 100 µM
same,TGI,[42],> 100 µM
same,TGI,[43],5.87 µM
same,TGI,[44],68.6 µM
same,TGI,[45],> 100 µM
same,TGI,[47],> 100 µM
same,TGI,[48],> 100 µM
same,TGI,[49],> 100 µM
same,TGI,[50],> 100 µM
same,TGI,[51],> 100 µM
